According to ChEMBL document CHEMBL1201862, “PubChem BioAssay data set” (2004):
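Test compounds were applied to cells in 96-well plates for 48 hours at 5 doses. Here, GI50 denotes the concentration required for 50% inhibition of growth.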 The source made the active and inactive calls. No stated cut-off is given here; in the data, active = GI50 up to about 1.1 µM and inactive = higher.

Key:
Test in all cases: NCI-60 cell line screen, 48 h
[1] = system: COLO 205
[2] = system: HCT-116
[3] = system: HCT-15
[4] = system: HOP-92
[5] = system: IGROV-1
[6] = system: KM12
[7] = system: M14
[8] = system: Malme-3M
[9] = system: NCI-H23
[10] = system: NCI-H460
[11] = system: OVCAR-3
[12] = system: RPMI-8226
[13] = system: SF-268
[14] = system: SF-539
[15] = system: SK-MEL-2
[16] = system: SK-OV-3
[17] = system: SNB-19
[18] = system: SR
[19] = system: UACC-257
[20] = system: UO-31

Row | Compound | GI50 [1] | GI50 [2] | GI50 [3] | GI50 [4] | GI50 [5] | GI50 [6] | GI50 [7] | GI50 [8] | GI50 [9] | GI50 [10] | GI50 [11] | GI50 [12] | GI50 [13] | GI50 [14] | GI50 [15] | GI50 [16] | GI50 [17] | GI50 [18] | GI50 [19] | GI50 [20]
1 | NC1=C(C(=O)O)C(=O)C(Nc2c(O)cccc2C(=O)O)=CC1=O | > 100 µM (inactive) | > 100 µM (inactive) | > 100 µM | > 100 µM (inactive) | > 100 µM (inactive) | > 100 µM (inactive) | 45.4 µM (inactive) | 40.1 µM (inactive) | > 100 µM (inactive) | 10 µM (inactive) | > 100 µM (inactive) | > 100 µM (inactive) | 1 µM (active) | > 100 µM (inactive) | 59.3 µM (inactive) | > 100 µM (inactive) | > 100 µM (inactive) | > 100 µM (inactive) | > 100 µM (inactive) | > 100 µM (inactive)
2 | CC1CCC2N(C1)CC1C3(O)CC45OC6(O)C(O)CCC4(C)C6CCC5C3(O)CC(O)C1(O)C2(C)O (stereo not drawn) | > 100 µM (inactive) | > 100 µM (inactive) | > 100 µM | > 100 µM (inactive) | > 100 µM (inactive) | > 100 µM (inactive) | > 100 µM (inactive) | > 100 µM (inactive) | > 100 µM (inactive) | > 100 µM (inactive) | > 100 µM (inactive) | > 100 µM (inactive) | > 100 µM (inactive) | > 100 µM (inactive) | > 100 µM (inactive) | > 100 µM (inactive) | > 100 µM (inactive) | > 100 µM (inactive) | > 100 µM (inactive) | > 100 µM (inactive)
3 | COc1nc2cccc(C(O)c3ccccc3)c2nc1-c1ccccc1 (stereo not drawn) | 4.68 µM (inactive) | 3.97 µM (inactive) | 4.43 µM | 6.92 µM (inactive) | 5.09 µM (inactive) | 6.04 µM (inactive) | 4.39 µM (inactive) | 17 µM (inactive) | 3.27 µM (inactive) | 4.14 µM (inactive) | 3.91 µM (inactive) | 2.94 µM (inactive) | 9.06 µM (inactive) | 2.88 µM (inactive) | 9.95 µM (inactive) | – | 4.36 µM (inactive) | 1.75 µM (inactive) | 5.89 µM (inactive) | 8.39 µM (inactive)
4 | COc1cccc2c1C(=O)c1c(O)c3c(c(O)c1C2=O)C[C@@](O)(C(=O)CO)C[C@@H]3OC1CC(N2CCOCC2)C(O)C(C)O1 (stereo partly drawn) | 0.00325 µM (active) | 0.0025 µM (active) | 0.00315 µM | 0.00975 µM (active) | 0.0131 µM (active) | 0.0246 µM (active) | 0.0324 µM (active) | 0.00259 µM (active) | 0.00567 µM (active) | 0.0025 µM (active) | 0.0025 µM (active) | 0.0025 µM (active) | 0.0239 µM (active) | 0.0025 µM (active) | 0.0025 µM (active) | 0.00292 µM (active) | 0.0025 µM (active) | 0.00466 µM (active) | 0.00267 µM (active) | 0.0025 µM (active)
5 | O=C(OCc1ccccc1)C(Cc1ccccc1)N(Cc1ccccc1)Cc1ccccc1 (stereo not drawn) | > 100 µM (inactive) | 24.1 µM (inactive) | 43.7 µM | > 100 µM (inactive) | > 100 µM (inactive) | > 100 µM (inactive) | > 100 µM (inactive) | > 100 µM (inactive) | > 100 µM (inactive) | 35.1 µM (inactive) | 84.7 µM (inactive) | 37.1 µM (inactive) | > 100 µM (inactive) | > 100 µM (inactive) | > 100 µM (inactive) | > 100 µM (inactive) | > 100 µM (inactive) | 9.51 µM (inactive) | 9.42 µM (inactive) | 59 µM (inactive)
6 | O=[N+]([O-])c1ccccc1S(=O)(=O)c1cccc2c1NCCC2 | 60.8 µM (inactive) | 42.7 µM (inactive) | 35 µM | 32.7 µM (inactive) | 34.3 µM (inactive) | 96.4 µM (inactive) | 82.8 µM (inactive) | 48.1 µM (inactive) | – | 44.2 µM (inactive) | 40.6 µM (inactive) | > 100 µM (inactive) | > 100 µM (inactive) | > 100 µM (inactive) | 21.6 µM (inactive) | 68.4 µM (inactive) | 65.2 µM (inactive) | 48.2 µM (inactive) | 18 µM (inactive) | 47.4 µM (inactive)
